# Reference: patent US20160081974A1, “COMPOSITION FOR PREVENTING OR TREATING EDEMA CONTAINING FLAVONOID COMPOUND” (Research & Business Foundation SUNGKYUNKWAN UNIVERSITY, priority 2014, published 2016)
# Columns and labels:
# lymphedema-induced mouse [1] = assay: Lymphedema size after daily injection into the edema site of lymphedema-induced mice (caliper, thigh cross-sectional area); assay type: in vivo; settings: measured every day, compared to control group
# Method: (§1) As mice, Outbred Mice ICR originating from Charles River Laboratories (Wilmington, Mass.) were used. 3 μl of 2% methylene blue as a staining dye for staining lymph nodes and lymphatic vessels was injected into the top of a right foot. After the injection, the right foot was massaged for about 3 minutes to allow a flow of the staining dye through lymphatic vessels to stain the lymphatic system. Zoletil50 (0.6 mg/kg) and Rompun (0.4 mg/kg), which are commercially provided by Bayer Korea, were administered as anesthetic drugs at the maximum content of 100 μl by intraperitoneal injection.
# (§2) Specifically, a mouse was anesthetized with the anesthetic drugs (Zoletil50, Rompun), and its chest was shaved to facilitate a surgical operation and suturing, and observation. A small amount (3 μl) of a 2% methylene blue solution was injected into the top of the right foot, and then the injected site was massaged for 3 minutes to allow the staining dye to spread well through the lymphatic vessels. […]
# Each of PBS, hyaluronidase and butein was administered into an edema site of the mouse prepared in Example 1 at 15 mg per kg a day, and the size of edema was measured each day.
# The cross-sectional area of lymphedema was calculated from the width and length of the thigh and recorded, and thus a change in size of lymphedema during observation was found.
# Each of PBS, hyaluronidase and sulfuretin (15 mg/kg/day) was injected into an edema site of the mouse prepared in Example 1, and the size of edema was measured every day.
# FIG. 8 illustrates the inhibition of lymphedema by sulfuretin, and the size measurement was performed on a thigh area present between the knee and the trunk of the lymphedema-induced site of the experimental animal using a caliper. The cross-sectional area of lymphedema was calculated from the width and length of the thigh and recorded, and thus a change in the lymphedema size that occurs in observation was found.
# Each of PBS, hyaluronidase and isoflavone (100 mg/kg/day) was injected into an edema site of the mouse prepared in Example 1, and the size of edema was measured every day. […]
# PPAR-γ mRNA [2] = assay: PPAR-γ mRNA in lymphedema tissue by real time PCR; assay type: in vivo, mouse
# Method: as §1
# Specifically, a mouse was anesthetized with the anesthetic drugs (Zoletil50, Rompun), and its chest was shaved to facilitate a surgical operation and suturing, and observation. […]
# In this example, to investigate a mechanism for inducing reduction in lymphedema, expression of an adipocyte-related marker greatly found in edema was examined. […] An edema tissue was collected, and mRNAs of adipocyte markers such as PPAR-γ and aP2 that are greatly found in edema were quantitatively analyzed by real time PCR, the result of which is shown in FIG. 2 (normal control: control group in which edema was not induced (n=3), edema+PBS: group into which PBS was injected after edema induction (n=4), edema+butein: group into which butein was injected after edema induction (15 mg/kg/day) (n=5)). […]
# aP2 mRNA [3] = assay: aP2 mRNA in lymphedema tissue by real time PCR; assay type: in vivo, mouse
# Method: as §1
# as §2, with “vessels. To minimize inflammation which may be caused when lymph nodes in a groin region were excised and lymphatic vessels in a thigh were blocked, a minimum area of the right groin was incised open.” for “vessels.”
# In this example, to investigate a mechanism for inducing reduction in lymphedema, expression of an adipocyte-related marker greatly found in edema was examined. […] An edema tissue was collected, and mRNAs of adipocyte markers such as PPAR-γ and aP2 that are greatly found in edema were quantitatively analyzed by real time PCR, the result of which is shown in FIG. […]
# In this example, to investigate a mechanism for inducing reduction in lymphedema, expression of an adipocyte-related marker easily found in edema was examined. […] An edema tissue was collected, and mRNAs of adipocyte markers such as PPAR-γ and aP2, which are greatly found in edema, were quantitatively analyzed by real time PCR, and the result is shown in FIG. […]
# lymphedema-induced mouse [4] = assay: Lymphedema reduction after subcutaneous injection for 5 days (leg images); assay type: in vivo; settings: compared to control group
# Method: as §1
# Specifically, a mouse was anesthetized with the anesthetic drugs (Zoletil50, Rompun), and its chest was shaved to facilitate a surgical operation and suturing, and observation. A small amount (3 μl) of a 2% methylene blue solution was injected into the top of the right foot, and then the injected site was massaged for 3 minutes to allow the staining dye to spread well through the lymphatic vessels. To minimize inflammation which may be caused when lymph nodes in a groin region were excised and lymphatic vessels in a thigh were blocked, a minimum area of the right groin was incised open. Afterward, a superficial inguinal node and popliteal node, and a deep inguinal node, which were stained with methylene blue, were sequentially removed, and the stained lymphatic vessels in the right thigh were blocked using a soldering iron. Since 70 to 80% of the total lymphatic vessels were present in a subcutaneous region, the subcutaneous region in a suturing site was seared with the soldering iron to completely block the lymphatic system under the suturing site, and the right thigh was finally closed by suturing. About 3 days later, an increase in edema was confirmed.
# Butein (15 mg/kg/day) was administered into an animal in which lymphedema was induced by lymph excision in Example 1 by subcutaneous injection for 5 days, and the result is shown in FIG. 3. […]
# lipedema-induced mouse = assay: Lipedema size after injection into the edema site of lipedema-induced mice (caliper, thigh cross-sectional area); assay type: in vivo; settings: 15 mg/kg/day injected into edema site, measured every day, versus untreated experimental group
# Method: (§3) Lymph nodes were removed from a mouse leg by a similar method to the method described in Example 1 to induce lipedema in the experimental animal, and an increase in edema was confirmed about 3 days after the removal of the lymph nodes.
# PBS (control) or butein (15 mg/kg/day) was injected into an edema site of the lipedema-induced mouse prepared in Example 5, and the edema size was measured every day.
# A thigh area present between the knee and the trunk of the lipedema-induced site of the experimental animal was measured using a caliper. The cross-sectional area of lipedema was calculated from the width and length of the thigh and recorded, and thus a change in size of lipedema during observation was found.
# PPAR-γ mRNA [5] = assay: PPAR-γ mRNA in lipedema tissue; assay type: in vivo, mouse; settings: butein injected for 14 days
# Method: as §3
# (§4) In this example, to investigate a mechanism for inducing the reduction of lipedema, expression of an adipocyte-related marker that is easily found in lipedema was examined. An edema tissue was isolated after butein was injected into lipedema for 14 days, and mRNAs of adipocyte markers, PPAR-γ and aP2, isolated from total RNA were quantified, and the result is shown in FIG. 7. Referring to FIG. 7, it could be confirmed that butein reduced the expression of PPAR-γ and aP2. Therefore, it can be seen that the inhibition of adipocytes by the butein administration has an influence on lipedema reduction.
# aP2 mRNA [6] = assay: aP2 mRNA in lipedema tissue; assay type: in vivo, mouse; settings: butein injected for 14 days
# Method: as §3, §4
# [7] = 15 mg/kg/day injected into edema site
# [8] = 15 mg/kg/day subcutaneous injection for 5 days
structure (smiles),measurement,setting,value
O=C(/C=C/c1ccc(O)c(O)c1)c1ccc(O)cc1O [butein],size of lymphedema,lymphedema-induced mouse [1]; [7],significantly reduced
same,mRNA expression of PPAR-γ in edema tissue,PPAR-γ mRNA [2]; 15 mg/kg/day for 14 days,inhibits
same,mRNA expression of aP2 in edema tissue,aP2 mRNA [3]; 15 mg/kg/day for 14 days,inhibits
same,size of lymphedema,lymphedema-induced mouse [4]; [8],significantly reduced
same,edema size (lipedema),lipedema-induced mouse,more rapidly and greatly reduced
same,mRNA expression of PPAR-γ in edema tissue,PPAR-γ mRNA [5],reduced
same,mRNA expression of aP2 in edema tissue,aP2 mRNA [6],reduced
O=C1/C(=C/c2ccc(O)c(O)c2)Oc2cc(O)ccc21 [sulfuretin],size of lymphedema,lymphedema-induced mouse [1]; [7],significantly reduced
same,mRNA expression of aP2 in edema tissue,aP2 mRNA [3]; 15 mg/kg/day for 14 days,inhibits
same,size of lymphedema,lymphedema-induced mouse [4]; [8],significantly reduced
O=c1c(-c2ccccc2)coc2ccccc12 [isoflavone],size of lymphedema,lymphedema-induced mouse [1]; 100 mg/kg/day injected into edema site,significantly reduced
same,mRNA expression of PPAR-γ in edema tissue,PPAR-γ mRNA [2]; 100 mg/kg/day for 14 days,inhibits
same,mRNA expression of aP2 in edema tissue,aP2 mRNA [3]; 100 mg/kg/day for 14 days,inhibits
same,size of lymphedema,lymphedema-induced mouse [4]; 100 mg/kg/day subcutaneous injection for 5 days,significantly reduced
